Measured values from patent publication US20020157138A1, “Transformation and regeneration of sunflower cotyledons” (priority 2001, published 2002).

Columns and labels:
[1] = tested on: sunflower cotyledons; test: Assessment of selection agents (GUS assay of transformed cotyledons and shoots); assay type: cell-based, Helianthus annuus L.; conditions: glyphosate 0.05->0.1->0.05 mM, paromomycin 25->50->25 mg/L, kanamycin 50 mg/L; for GUS Positive/Total cotyledons assayed: destructive GUS assays at different stages
Experimental: After the post-transformation delay, the transformed cotyledons were transferred through a series of selection cultures containing low-high-low concentrations of selective agent. The cotyledons were first placed in Selection media (see Table 1) containing 0.05 mM glyphosate for about 10 days. Plates were incubated at 23° C., low light, and 18/6 hour photoperiod. The cotyledons were then transferred to a second selection culture containing Selection media +0.1 mM glyphosate for about 2 additional weeks. Finally, the cotyledons were placed in a third selection culture containing Selection media +0.05 mM glyphosate for about 7 to 14 days. In addition to glyphosate, several other selection agents were tested (Table 4).

[2] = tested on: HA300B (Control); test: Glyphosate spray in greenhouse, non-transgenic control; assay type: in vivo, sunflower; conditions: for Tolerance to glyphosate spray: greenhouse, about v6 to v10 leaf stage
Experimental: (§1) Transgenic R1 sunflower plants (from strain HA300B), transformed with pWRG4750, were transformed and regenerated as described in Examples 5-9 and tested in greenhouse. About 5000 R2 seeds of two independent transformants, SFB193 and SFB216, were planted. […] […] The sunflower plants were assessed for resistance to glyphosate.
(§2) In addition, the glyphosate-treated transgenic plants were scored for normal head development.

[3] = tested on: SFB193; test: Glyphosate spray in greenhouse, transgenic sunflower; assay type: in vivo
Experimental: as §1, §2

[4] = tested on: SFB216; test: as above; assay type: in vivo
Experimental: Transgenic R1 sunflower plants (from strain HA300B), transformed with pWRG4750, were transformed and regenerated as described in Examples 5-9 and tested in greenhouse. About 5000 R2 seeds of two independent transformants, SFB193 and SFB216, were planted. Some plants were sprayed with Glyphosate at V-4 and V-8 leaf stages at 0 and 32 oz/acre level. […] The sunflower plants were assessed for resistance to glyphosate.
as §2

[5] = tested on: SFB193 and SFB216; test: Glyphosate spray of plants from R2 seeds at V4 and V8 stages; assay type: in vivo, sunflower; conditions: 32 and 64 oz/acre; V4 and V8 stages of plant development
Experimental: Transgenic R1 sunflower plants (from strain HA300B), transformed with pWRG4750, were transformed and regenerated as described in Examples 5-9 and tested in greenhouse. About 5000 R2 seeds of two independent transformants, SFB193 and SFB216, were planted. Some plants were sprayed with Glyphosate at V-4 and V-8 leaf stages at 0 and 32 oz/acre level. For the other plants, glyphosate treatment rates, at V4 stage were 0-, 32-, or 64 oz./acre. The sunflower plants were assessed for resistance to glyphosate.

SMILES | GUS Positive/Total cotyledons assayed [1] | GUS Positive Shoots [1] | Normal Sunflower Heads After Treatment With Glyphosate ([2]; 32 oz./acre) [%] | Tolerance to glyphosate spray ([2]; 32 oz./acre) | Normal Sunflower Heads After Treatment With Glyphosate ([2]; 64 oz./acre) [%] | Tolerance to glyphosate spray ([2]; 64 oz./acre) | Normal Sunflower Heads After Treatment With Glyphosate ([2]; 96 oz./acre) [%] | Normal Sunflower Heads After Treatment With Glyphosate ([2]; 128 oz./acre) [%] | Normal Sunflower Heads After Treatment With Glyphosate ([3]; 32 oz./acre) [%] | Normal Sunflower Heads After Treatment With Glyphosate ([3]; 64 oz./acre) [%] | Normal Sunflower Heads After Treatment With Glyphosate ([3]; 96 oz./acre) [%] | Normal Sunflower Heads After Treatment With Glyphosate ([3]; 128 oz./acre) [%] | Normal Sunflower Heads After Treatment With Glyphosate ([4]; 32 oz./acre) [%] | Normal Sunflower Heads After Treatment With Glyphosate ([4]; 64 oz./acre) [%] | Normal Sunflower Heads After Treatment With Glyphosate ([4]; 96 oz./acre) [%] | Normal Sunflower Heads After Treatment With Glyphosate ([4]; 128 oz./acre) [%] | Vegetative tolerance to glyphosate spray [5]
O=C(O)CNCP(=O)(O)O [Glyphosate] | 63/80 | 7 | 0 | No Tolerance | 0 | No Tolerance | 0 | 0 | 56 | 79 | 50 | 25 | 70 | 32 | 14 | 0 | excellent vegetative tolerance
NC[C@H]1O[C@H](O[C@H]2[C@H](O)[C@@H](O[C@H]3O[C@H](CO)[C@@H](O)[C@H](N)[C@H]3O)[C@H](N)C[C@@H]2N)[C@H](O)[C@@H](O)[C@@H]1O [Kanamycin] | 59/64 | 16 |  |  |  |  |  |  |  |  |  |  |  |  |  |  | 
NC[C@@H]1O[C@H](O[C@H]2[C@@H](O)[C@H](O[C@@H]3[C@@H](O)[C@H](N)C[C@H](N)[C@H]3O[C@H]3O[C@H](CO)[C@@H](O)[C@H](O)[C@H]3N)O[C@@H]2CO)[C@H](N)[C@@H](O)[C@@H]1O [Paromomycin] | 15/30 | 7 |  |  |  |  |  |  |  |  |  |  |  |  |  |  | 
